Active and inactive are the calls of the source. The rule behind the calls is not given here.
tested on: HEK-293T NF-kB luciferase reporter counterscreen, luminescence; assay: inhibitors of HEK-293T NF-kB luciferase – HEK-293T cells, luminescence, counter-screen for T-cell antigen receptor NF-kB inhibitors, dose response (AID 489041)

For `CC(=O)O[C@H]1C(=O)[C@@]2(C)C([C@H](OC(=O)c3ccccc3)[C@]3(O)C[C@H](OC(=O)[C@H](O)[C@@H](NC(=O)Cc4ccccc4)c4ccccc4)C(C)=C1C3(C)C)[C@]1(OC(C)=O)CO[C@@H]1C[C@@H]2O` (stereo partly drawn), the IC50 was 45.6 µM (inactive).
With `CCOC(=O)c1[nH]c2c(c1C)C(=O)CC(c1ccc(F)cc1)C2` (stereo not drawn) the IC50 was > 80 µM (inactive).
In the case of `CCCCc1ccc(NC(=O)c2ccc(N(C)S(C)(=O)=O)cc2)cc1`, the IC50 is reported as > 80 µM (inactive).
For `Cc1ccc2nc(SCC(=O)Nc3cc(C(F)(F)F)ccc3N3CCOCC3)[nH]c2c1`, the IC50 was 25.6 µM (inactive).
In the case of `COC(=O)C(Cc1ccc(N(CCCl)CCCl)cc1)N=Cc1ccccc1O` (stereo not drawn), the IC50 is reported as 43.4 µM (inactive).
For `CC(=O)Nc1ccc(S(=O)(=O)N2CCSc3ccccc32)cc1`, the IC50 was 21.3 µM (inactive).
`CC1(C)Cc2c(sc(NC(=O)COc3cccc4ccccc34)c2C#N)C(C)(C)N1` was tested, and the IC50 was > 80 µM (inactive).
With `Cc1noc(C)c1COc1ccc(C(=O)NNC(=O)c2ccccc2F)cc1` the IC50 was 30.3 µM (inactive).
`Cc1ccc(NC(=O)Nc2ccnc(-c3cccnc3)n2)cc1` was tested, and the IC50 was > 80 µM (inactive).
With `Oc1ccc2ccccc2c1N=Nc1ccccn1` the IC50 was > 80 µM (inactive).
For `O=C(Nc1ccncc1)C1CCCN(S(=O)(=O)c2cccc3cccnc23)C1` (stereo not drawn), the IC50 was 35.1 µM (inactive).
For `CCOc1ccc(S(=O)(=O)NCc2ccccn2)cc1NC(=O)c1ccccc1`, the IC50 was 40.7 µM (inactive).
With `COc1cccc(-c2cc(=O)c3cc(NC(=O)c4ccc(N(C)C)cc4)ccc3[nH]2)c1` the IC50 was > 80 µM (inactive).
With `CCOC(=O)c1[nH]c(C)c(C(=O)OCC(=O)NC(C)c2ccc(F)cc2)c1C` (stereo not drawn) the IC50 was > 80 µM (inactive).
With `Cc1cc(-c2ccc(C(C)C)c(S(=O)(=O)N3CCN(c4ccccc4)CC3)c2)on1` the IC50 was 22 µM (inactive).
With `O=C(NC(Nc1nc2ccc([N+](=O)[O-])cc2s1)(C(F)(F)F)C(F)(F)F)c1ccccc1` the IC50 was > 80 µM (inactive).
With `Clc1ccc2c(c1)C(C1=NCCN1)c1ccccc1CS2` (stereo not drawn) the IC50 was > 80 µM (inactive).
For `COc1ccc(/C=N/NC(=O)c2[nH]c3ccc(Br)cc3c2-c2ccccc2)cc1`, the IC50 was 21.1 µM (inactive).

Point of comparison: `COc1ccccc1CNS(=O)(=O)c1ccc(-c2cc(C)no2)cc1`, IC50 8.48 µM. Against it:
- O=[N+]([O-])c1nn(-c2ccc3c(c2)OCCO3)n(O)c1=Nc1ccccc1 — within 1.5-fold, 12.4 µM
- CCOc1ccccc1C1CC(=O)Nc2cc3c(cc21)OCO3 (stereo not drawn) — within 1.5-fold, 6.14 µM
- COc1ccc(NC(=O)/C(Cl)=C(/Cl)S(=O)Cc2ccc(C)cc2)cn1 (stereo not drawn) — 1.5-fold lower, 5.5 µM
- CCOC(=O)c1[nH]c2c(c1C)C(=O)CC(c1ccco1)C2 (stereo not drawn) — 1.9-fold lower, 4.38 µM
- Cc1ccc(S(=O)(=O)Cc2ccc(C(=O)N3CCN(c4cccc(C)c4C)CC3)o2)cc1 — 2.6-fold lower, 3.22 µM
- COc1ccc(CS(=O)/C(Cl)=C(/Cl)C(=O)Nc2ccc(OC)nc2)cc1 (stereo not drawn) — 2-fold lower, 4.31 µM
- O=C(NNc1ccnc2cc(Cl)ccc12)C1CCCCC1 — 26-fold lower, 0.33 µM
- Cc1cc(C)c(S(=O)(=O)Nc2ccc3c4c(cccc24)CC3)c(C)c1 — 4.9-fold lower, 1.73 µM
- COc1cccc(N2CCN(c3ncnc4c3cnn4-c3ccc(C)cc3C)CC2)c1 — 4.1-fold lower, 2.07 µM
- COc1ccc(-c2ccc3oc(-c4ccc(OC)cc4)c(C#CCO)c3c2)cc1 — 1.7-fold higher, 14.2 µM
- O=C(NCc1cccs1)C1CCN(c2ccc(S(=O)(=O)N3CCOCC3)cc2Cl)CC1 — within 1.5-fold, 8.56 µM
- Cc1ccc(S(=O)(=O)NCc2ccncc2)c(C)c1C — 28-fold lower, 0.3 µM
- COC(=O)c1ccc2nc(Nc3nc4c(F)cc(F)cc4s3)sc2c1 — 17-fold lower, 0.51 µM
- Cc1ccc(S(=O)(=O)Nc2ccccc2-c2ccccc2)cc1 — within 1.5-fold, 8.86 µM
- CC(Oc1ccc(Cl)cc1Cl)C(=O)Nc1ccncc1 (stereo not drawn) — within 1.5-fold, 6.73 µM
- COc1ccc2c(C)nc(Nc3nc(-c4ccccc4)cc(=O)[nH]3)nc2c1 — 5.5-fold lower, 1.54 µM
- COC(=O)C1=C(CN2CCCc3ccccc32)NC(=O)NC1c1ccc(F)cc1 (stereo not drawn) — 1.6-fold lower, 5.33 µM
- Cc1ccc(NS(=O)(=O)c2ccc(C(=O)NC3CCN(Cc4ccccc4)CC3)cc2)cc1 — within 1.5-fold, 7.66 µM
- Cc1cccc(N2CCN(C(=O)c3ccc(S(=O)(=O)N(C)c4ccccc4)cc3)CC2)c1C — within 1.5-fold, 10.5 µM
- O=S1(=O)C=C(Sc2nc3ccccc3s2)c2ccccc21 — 1.5-fold lower, 5.57 µM
- CCCCCCCCn1c2c(c(=N)c3ccccc31)CCC2 — 6.1-fold lower, 1.39 µM
- COc1cc(C2=NOC(C(=O)NCc3ccc(F)cc3)C2)cc(OC)c1OC (stereo not drawn) — within 1.5-fold, 6.34 µM
- COC(=O)[C@]12OC[C@]34C([C@@H](O)[C@@H]1O)[C@]1(C)CC(=O)C(O)=C(C)[C@@H]1C[C@H]3OC(=O)[C@H](O)[C@@H]24 (stereo partly drawn) — 15-fold lower, 0.548 µM
- O=C(CSc1nnc(Cn2nnc3ccccc32)o1)N(Cc1ccc(F)cc1)c1ccccc1 — 9-fold lower, 0.94 µM
- CC1(C)CC(N2CCN(C(c3ccccc3)c3ccccc3)CC2)=CC(=[N+]2CCCCC2)C1 — 6.8-fold lower, 1.25 µM
- CCOc1ccccc1C1CC(=O)Nc2cc3c(cc21)OCCO3 (stereo not drawn) — 2-fold lower, 4.19 µM
- O=C1CC(c2cc(F)ccc2F)c2cc3c(cc2N1)CCC3 (stereo not drawn) — 1.8-fold lower, 4.69 µM
- Cn1ncc2c(N3CCN(c4ccc(Cl)c(Cl)c4)CC3)ncnc21 — 6.6-fold lower, 1.29 µM
- COc1cc2nc(CN3CC=C(c4ccccc4)CC3)[nH]c(=O)c2cc1OC — 3.4-fold lower, 2.5 µM
- COc1cccc(CN(C)C(=O)c2ccc(OCC(=O)Nc3cccc(C(F)(F)F)c3)c(OC)c2)c1 — 4.5-fold lower, 1.88 µM
- CCOc1ccccc1C1CC(=O)Nc2cc(C)c(C)cc21 (stereo not drawn) — within 1.5-fold, 7.75 µM
- CCCc1cc(C(=O)N/N=C/c2ccc(CC)s2)c2ccccc2n1 — 3.4-fold lower, 2.47 µM
- COc1cc(NCCCCCCCN)c2ncccc2c1 — within 1.5-fold, 11.8 µM
- COc1ccc(/C=N\NC(=O)c2ccccc2F)cc1COc1ccc(F)cc1F — within 1.5-fold, 8.43 µM
- COc1ccc(/C=C2/C(=O)OCc3cc(OC)c(OC)cc32)cc1 — within 1.5-fold, 12 µM
- O=C(Nc1ccc(Cc2ccncc2)cc1)c1ccc(S(=O)(=O)N2CCCC2)cc1 — 3.1-fold lower, 2.75 µM
- COc1ccc2c(c1)/C(=C/c1cnc[nH]1)C(=O)N2 — 12-fold lower, 0.7 µM
- CC1CC(C)CN(S(=O)(=O)c2ccc(NC(=O)c3ccc(=O)[nH]c3)cc2)C1 (stereo not drawn) — within 1.5-fold, 12.6 µM
- COc1cc([C@@H]2c3cc4c(cc3[C@H](O)[C@H]3COC(=O)[C@H]23)OCO4)cc(OC)c1OC — lower, < 0.16 µM
- O=C(N/N=C\c1c(O)ccc2ccccc12)c1cncc(Br)c1 — within 1.5-fold, 11.2 µM
- O=C(Nc1ccccc1Cl)/C(Cl)=C(\Cl)S(=O)c1ccccc1 (stereo not drawn) — within 1.5-fold, 9.87 µM
- COc1ccc(C[C@H](N)C(=O)N[C@H]2[C@@H](O)[C@H](n3cnc4c(N(C)C)ncnc43)O[C@@H]2CO)cc1 — 3.2-fold lower, 2.64 µM
- CN(Cc1ccccc1)C1=CC(=[N+]2CCCC2)CC(C)(C)C1 — 5.3-fold lower, 1.61 µM
- COc1ccc([C@H]2CC(=O)C=C(c3c(OC)cccc3OC)C2)cc1 — within 1.5-fold, 10.2 µM
- COc1cc(NS(=O)(=O)c2ccc(C)cc2)c2ncccc2c1 — 5.1-fold lower, 1.65 µM
- CCN(CC)c1ccc(-c2nn3c(-c4n[nH]c5c4CCC5)nnc3s2)cc1 — 3.9-fold lower, 2.16 µM
- CCOc1ccc(Nc2cc(C)nc(-n3nc(C)cc3C)n2)cc1 — 2.2-fold lower, 3.93 µM
- O=C(Nc1ccncc1)c1ccc(Cl)c(S(=O)(=O)N2CCc3ccccc32)c1 — 5.7-fold lower, 1.49 µM
- COc1ccc(-[n+]2c(-c3ccccc3)cc(-c3ccc(C)cc3)cc2-c2ccccc2)cc1 — 2.3-fold lower, 3.61 µM
- CC(C)Oc1ccccc1C1CC(=O)Nc2cc3c(cc21)OCO3 (stereo not drawn) — 2.8-fold lower, 3.01 µM
- CCc1cc(C(=O)NC2CCCc3c2cnn3-c2cccc(C)c2C)n(C)n1 (stereo not drawn) — lower, < 0.16 µM
- CC(C)(C)OC(=O)NCCCCCc1cn(CC(=O)NCCCCCCCCCCC(=O)N2CCN(C(=O)OC(C)(C)C)CC2)nn1 — 39-fold lower, 0.22 µM
- CC(C)(C)C(=O)Nc1ccc(NC(=O)c2ccco2)nc1 — 31-fold lower, 0.27 µM
- CNC[C@@H](CC1CCCCC1)NC[C@H](CC(C)C)NCCc1cccc(C(F)(F)F)c1 — 1.5-fold higher, 12.8 µM

Reference: PubChem BioAssay AID489041 (Sanford-Burnham Center for Chemical Genomics, 2010)
